Entries after “also recorded” stand apart in the source; their conditions may differ.
What was measured:
[1] = system: platelets (platelet cyclooxygenase acylation); assay: Platelet washing study (ADGS); format: cell-based, human; details: platelet-rich plasma pretreated with drug at 37° C.; 200 μM arachidonic acid; before/after two-fold washing
Description: It is generally accepted that aspirin inhibits platelet cyclooxygenase through an irreversible acetylation process. In separate experiments, the platelet acylation by these O-acyl salicylates was investigated. It is hypothesised that if the acylation were reversible, then the O-acyl moieties might be removed by platelet washing. Consequently, the washed platelets would become susceptible to aggregation by arachidonic acid.
A platelet-washing technique, ADGS (albumin density gradient separation) similar to one used by Spriggs and Alexander (Spriggs, 1960, Nature 188 863), was employed for this purpose. The principle underlying ADGS is simply that of centrifuging platelets into a continuous density gradient produced by mixing the interface between platelet-rich plasma and 40-45% bovine serum albumin. Thereby the platelets are gently sedimented into a zone with a specific gravity equal to their own, and they are protected by the cushion of albumin from disruptive squashing on the hard surface of the centrifuge tube.
Flat-bottomed, polystyrene tubes of 10 mL capacity with stopper were used for platelet washing by ADGS. Pasteur pipettes were siliconised and used for transferring plasma and wash fluid. Stirring rods were made from Pasteur pipettes by heating the tips, forming a right-angle ben approximately 1 cm long and then siliconised. […]

[2] = cited from earlier work
[3] = at 25° C. (Foye 1989); cited from earlier work

Row | Compound | Platelet response to arachidonic acid after pretreatment (platelet washing study) [1] | solubility ([2]; at 25° C., The Merck Index 1983) [M] | Maximum solubility ([2]; water, 25° C., literature value (Merck Index)) [mM] | pKa [3]
1 | CCCCCC(=O)Oc1ccccc1C(=O)O [Compound C6SA, n-hexanoylsalicylic acid] | non-reversibly inhibited; also recorded: still refractory to arachidonic acid |  |  | 
2 | O-acetylsalicylic acid [Compound C2SA, reference compound] | non-reversibly inhibited; also recorded: still refractory to arachidonic acid | 0.0185 | 18.5 | 3.5
